Reference: patent US20050137145A1, “Metabolites of 1-dimethylamino-3-(3-methoxy-phenyl)-2-methyl-pentan-3-ol and their use in the treatment of urinary incontinence” (Gruenenthal GmbH, priority 2002, published 2005)
Marks after values point to notes of the source that are not given here.

System: naive female Sprague-Dawley rats
Assay: Cystometry test system on the conscious naive rat
Format: in vivo
Settings: for BC bladder capacity (change relative to the preliminary value) / ICI inter-contraction interval (change relative to the preliminary value) / TP threshold pressure (change relative to the preliminary value): at maximum activity, mean of 3 miction cycles; for effect on bladder regulation (in words): summary of the cystometry results, i.v.
Method: Cystometric investigations were carried out on naive female Sprague-Dawley rats according to the method of Ishizuka et al. ((1997), Naunyn-Schmiedeberg's Arch. Pharmacol. 355: 787-793). Three days after the implantation of bladder and venous catheters, the animals, which were free to move, were studied in the conscious state. The bladder catheter was attached to a pressure transducer and an injection pump. The animals were placed in metabolic cages which allowed the volume of urine to be measured. Physiological saline solution was infused into the emptied bladder (10 ml/h) and the bladder pressure and miction volume were recorded continuously. After a stabilization phase, a 20-minute phase characterised by normal, reproducible miction cycles was recorded. The following parameters, inter alia, were determined: • threshold pressure (TP, bladder pressure immediately before miction), • bladder capacity (BC, residual volume after previous miction plus volume of solution infused during the filling phase), • inter-contraction interval (ICI, the time interval between mictions).
An increase in the threshold pressure (TP) indicates an important therapeutic activity in one of the indications according to the invention. The inter-contraction interval (ICI) is also an important parameter for measuring the physiological effectiveness of a substance in the treatment of urinary incontinence, as is the bladder capacity (BC). Because the causes of the symptoms of these disorders are highly heterogeneous, it is not necessary for all three parameters to be influenced positively in order for effectiveness to exist. It is, therefore, entirely satisfactory for a positive effect to be determined in only one of these parameters in order to be usable in urinary incontinence or increased urinary urgency.
After three reproducible miction cycles had been recorded as the preliminary value, the test substances 1 (1.0 mg/kg), 2 (0.1; 0.3 and 0.5 mg/kg), 21 (0.5 mg/kg) and 7 (0.3 mg/kg) were administered i.v. in the vehicle=0.9% NaCl and the effect on the cystometric parameters was recorded for 90 to 120 minutes. At the maximum activity, the mean of 3 miction cycles was determined and indicated as the percentage change relative to the preliminary value (Table 1).

SMILES | BC bladder capacity (change relative to the preliminary value) (1.0 mg/kg i.v.) | ICI inter-contraction interval (change relative to the preliminary value) (1.0 mg/kg i.v.) | TP threshold pressure (change relative to the preliminary value) (1.0 mg/kg i.v.) | BC bladder capacity (change relative to the preliminary value) (0.3 mg/kg i.v.) | ICI inter-contraction interval (change relative to the preliminary value) (0.3 mg/kg i.v.) | TP threshold pressure (change relative to the preliminary value) (0.3 mg/kg i.v.) | BC bladder capacity (change relative to the preliminary value) (0.1 mg/kg i.v.) | ICI inter-contraction interval (change relative to the preliminary value) (0.1 mg/kg i.v.) | TP threshold pressure (change relative to the preliminary value) (0.1 mg/kg i.v.) | BC bladder capacity (change relative to the preliminary value) (0.5 mg/kg i.v.) | ICI inter-contraction interval (change relative to the preliminary value) (0.5 mg/kg i.v.) | TP threshold pressure (change relative to the preliminary value) (0.5 mg/kg i.v.) | effect on bladder regulation (in words)
CC[C@](O)(c1cccc(OC)c1)[C@H](C)CN(C)C.Cl (racemic) [Compound 1, (2RS,3RS)-1-Dimethylamino-3-(3-methoxy-phenyl)-2-methyl-pentan-3-ol, hydrochloride] | +31%*** | +42% | +94%** |  |  |  |  |  |  |  |  |  | 
CCC(O)(c1cccc(O)c1)C(C)CN(C)C.Cl (racemic) [Compound 7, (2RS,3RS)-3-(3-Dimethylamino-1-ethyl-1-hydroxy-2-methyl-propyl)-phenol, hydrochloride] |  |  |  | +32%* | +28%* | +95%** |  |  |  |  |  |  | 
CC[C@](O)(c1cccc(OC)c1)[C@H](C)CN(C)C.Cl [Compound 2, (+)-(2R,3R)-1-Dimethylamino-3-(3-methoxy-phenyl)-2-methyl-pentan-3-ol, hydrochloride] |  |  |  | +33%* | +28%* | +122%** | +7.8% | +15.6% | +28.5%** | +20.6%* | +28.6%** | +77.5%** | very effective
CC[C@@](O)(c1cccc(OC)c1)[C@@H](C)CN(C)C.Cl [Compound 21, (−)-(2S,3S)-1-Dimethylamino-3-(3-methoxy-phenyl)-2-methyl-pentan-3-ol, hydrochloride] |  |  |  |  |  |  |  |  |  | +3% | +10% | −1.1% | does not make such a strong contribution to the action
